The values below are quoted from earlier work in PMC11195919 (Journal of pharmacy & pharmaceutical sciences : a …, 2021).

The Km is the concentration of substrate that gives half-maximal velocity.

One data set concerns OATP1B3. Particulars: read-out: Km of CCK-8 transport by OATP1B3.

Regarding cholecystokinin octapeptide [CCK-8], the “linear range of initial uptake of CCK-8” value in the data set on primary rat hepatocyte (non-transduced rat hepatocytes) was “at least 1 min”. For the same substance, the values for the Michaelis-Menten constant (Km) in the data set on primary rat hepatocyte (read-out: Km of CCK-8 uptake in primary rat hepatocyte) and in the data set with OATP1B3 were 6.7 µM and 3.82 µM, respectively.
